Format in all cases: cell-based
For one assay, the system named is Colo320. The assay is described as follows: MTT cytotoxicity assay, Colo320. To be noted: Homo sapiens, COLO 320, 72 h of exposure. Here is the method:
(§1) The in vitro cytotoxicity of the TSCs HL^1–HL^3, copper(II) complexes Cu(HL^1)Cl2, [Cu(L^2)Cl], and Cu(HL^3)Cl2, and oxidized TSCs HL^1a′, HL^1a″, and HL^2c′·CH3COOH was tested in the doxorubicin-sensitive Colo205 and the multidrug-resistant Colo320 human colonic adenocarcinoma cell lines as well as in normal human embryonal lung fibroblast cells (MRC-5) by the colorimetric MTT assay. […]
(§2) 2.5. In vitro cell studies
(§3) 2.5.1. Cell lines and culture conditions
(§4) All cell culture reagents were obtained from Sigma-Aldrich and plastic ware from Sarstedt
(§5) (Germany). Doxorubicin-sensitive human colonic Colo 205 and multidrug resistant
(§6) Colo 320/MDR-LRP adenocarcinoma cell lines were purchased from LGC Promochem,
(§7) Teddington, UK. The cells were cultured in Roswell Park Memorial Institute (RPMI) 1640
(§8) medium supplemented with 10% heat-inactivated fetal bovine serum, 2 mM L-glutamine, 1 mM
(§9) Na-pyruvate and 100 mM Hepes. The cell lines were incubated at 37°C, in a 5% CO2, 95% air
(§10) MRC-5 human embryonal lung fibroblast cell line (ATCC CCL-171) was purchased from LGC
(§11) Promochem, Teddington, UK. The cell line was cultured in Eagle’s Minimal Essential Medi um
(§12) (EMEM, containing 4.5 g/L glucose) supplemented with a non-essential amino acid mixture, a
(§13) selection of vitamins and 10% heat-inactivated fetal bovine serum. The cells were incubated at
(§14) 37°C, in a 5% CO2, 95% air atmosphere. All cell lines were detached with Trypsin-Versene
(§15) (EDTA) solution for 5 min at 37 °C.
(§16) The tested compounds were dissolved in DMSO using 10 mM concentration. Then stock solutions
(§17) were diluted in complete culture medium in 96-well microtiter plates, and two-fold serial dilutions
(§18) of compounds were prepared in 100 µL of RPMI 1640, horizontally. The semi-adherent colonic
(§19) adenocarcinoma cells were treated with Trypsin -Versene (EDTA) solution. They were adjusted to
(§20) a density of 1×10^4 cells in 100 µL of RPMI 1640 medium, and were added to each well, with the
(§21) exception of the medium control wells. The final volume of the wells containing compounds and
(§22) cells was 200 µL. The culture were incubated at 37 °C for 72 h; at the end of the incubation period,
(§23) 20 µL of MTT solution (from a stock solution of 5 mg/mL) were added to each well. After
(§24) incubation at 37 °C for 4 h, 100 µL of SDS solution (10% in 0.01 M HCI) were added to each well
(§25) and the plates were further incubated at 37 °C overnight. The cell growth was determined using
(§26) both methods by measuring the optical density (OD) at 450 nm (ref. 620 nm) with a Multiscan EX
(§27) ELISA reader. Inhibition of the cell growth (expressed as IC 50: inhibitory concentration that
(§28) reduces by 50% the growth of the cells exposed to the tested compounds) was determined from
(§29) the sigmoid curve where 100 – ((ODsample ‒ ODmedium control)/(ODcell control ‒ ODmedium control)) × 100
(§30) values were plotted against the logarithm of compound concentrations. […]
(§31) 0.76 tyrosyl radical/polypeptide. Samples containing 20 µM mR2 in 50 mM HEPES buffer, pH
(§32) 7.50/100 mM NaCl, and 20 µM respective compound in 1% (v/v) DMSO/H2O, and 2 mM

A further assay relates to Colo205. The assay is described as follows: MTT cytotoxicity assay, Colo205. As to conditions: Homo sapiens, COLO 205, 72 h of exposure. Here is the method: as §1, §2, §3, §4, §5, §6, §7, §8, §9, §10, §11, §12, §13, §14, §15, §16, §17, §18, §19, §20, §21, §22, §23, §24, §25, §26, §27, §28, §29, §30, §31, §32
The next assay relates to MRC-5. The assay is described as follows: MTT cytotoxicity assay, MRC-5. To be noted: Homo sapiens, MRC5, 72 h of exposure. On the procedure:
as §2, §3
All cell culture reagents were obtained from Sigma-Aldrich and plastic ware from Sarstedt […]
as §10, §11, §12, §13, §14, §15, §16, §17, §18, §19, §20, §21, §22, §23, §24, §25, §26, §27, §28, §29, §30

These results are taken from PMC8335727 (Inorganic Chemistry, 2021).

Turning to `Cc1cc(NC(=S)NN=Cc2ccccn2)cc(C)c1O` [HL^1, 2-Formylpyridine 4-(4-hydroxy-3,5-dimethylphenyl)thiosemicarbazone], the values for the IC50 with Colo320, in the assay with Colo205 and in the assay with MRC-5 were 6.32 ± 0.49 µM, more than 100 µM and more than 100 µM, respectively.

Take `CC(=NNC(=S)Nc1cc(C)c(O)c(C)c1)c1ccccn1` [HL^2, 2-Acetylpyridine 4-(4-hydroxy-3,5-dimethylphenyl)thiosemicarbazone]: the IC50 in the assay with Colo320, in the assay on Colo205 and in the assay on MRC-5 was more than 100 µM each time.

As for `Cc1cc(NC(=S)NN=Cc2ncccc2N)cc(C)c1O` [HL^3, 3-Amino-2-formylpyridine 4-(4-hydroxy-3,5-dimethylphenyl)thiosemicarbazone], the IC50 was more than 100 µM in the assay on Colo320, 48.2 ± 6.8 µM in the assay with Colo205 and more than 100 µM in the assay with MRC-5.
